Laboratory results published in patent publication US7829283B2, “Methylation of estrogen receptor alpha and uses thereof” (John Wayne Cancer Institute, priority 2006, dated 2010).

What was measured:
[1] = tested on: ER-α mRNA expression in MCA melanoma cell line; experiment: ER-α mRNA re-expression by RT-PCR in melanoma cell lines after 5-Aza and TSA treatment; type: cell-based, human; conditions: data not shown
Description: To confirm down-regulation of ER-α expression by hypermethylation of the ER-α promoter region, cell lines were treated with the DNA-demethylating agent, 5-Aza, and the HDAC inhibitor, TSA. In combination with 5-Aza treatment, TSA can up-regulate the mRNA expression of genes silenced due to hypermethylation (26, 27). The MCF-7 cell line was used as an ER-α positive control and the MCA cell line was used as an ER-α negative control. Cell lines were maintained in RPMI 1640 medium supplemented with heat-inactivated 10% fetal bovine serum (FBS), penicillin G, and streptomycin (100 U/ml). Cells were treated with 1000 nM TSA for 24 hr (Wako Biochemicals, Osaka, Japan) and 1000 nM 5-Aza for five days (Sigma Chemical Co., St Louis, Mo.). After treatment with 5-Aza and TSA, melanoma cells were washed with phosphate buffered saline (PBS) and harvested with 0.25% trypsin-0.53 mM EDTA (Gibco, Auckland, N.J.). The mRNA expression level of ER-α was assessed by RT-PCR before and after 5-Aza and TSA treatment. […] The RNA was quantified and assessed for purity using ultraviolet spectrophotometry and the RIBOGreen detection assay (Molecular Probes, Eugene, Oreg.). The expression of mRNA for GAPDH, an internal reference housekeeping gene, was assessed by RT-PCR on all RNA samples to verify the integrity of RNA and to indicate equal loading of PCR products for gel electrophoresis. […]

advanced melanoma = conditions: chemotherapy and BC regimens; cited from earlier work
melanoma cells = conditions: in vitro experiments; cited from earlier work

Row | SMILES | ER-α mRNA expression, single agent versus need for the second agent [1] | overall survival in advanced melanoma (advanced melanoma) | growth inhibition of melanoma cells in vitro (melanoma cells)
1 | Nc1ncn([C@H]2C[C@H](O)[C@@H](CO)O2)c(=O)n1 [5-Aza, 5-aza-2-deoxycytidine] | did not significantly increase | – | –
2 | CC(/C=C/C(=O)NO)=C\[C@@H](C)C(=O)c1ccc(N(C)C)cc1 [TSA, trichostatin A] | necessary to significantly increase expression above pretreatment levels | – | –
3 | CC/C(=C(\c1ccccc1)c1ccc(OCCN(C)C)cc1)c1ccccc1 [tamoxifen] | – | has not been shown to significantly improve overall survival | effective growth inhibitor
